This experiment addresses T1, Malonyl-CoA decarboxylase, mitochondrial (Homo sapiens, UniProt O95822).
T1 sequence (O95822 whole entry): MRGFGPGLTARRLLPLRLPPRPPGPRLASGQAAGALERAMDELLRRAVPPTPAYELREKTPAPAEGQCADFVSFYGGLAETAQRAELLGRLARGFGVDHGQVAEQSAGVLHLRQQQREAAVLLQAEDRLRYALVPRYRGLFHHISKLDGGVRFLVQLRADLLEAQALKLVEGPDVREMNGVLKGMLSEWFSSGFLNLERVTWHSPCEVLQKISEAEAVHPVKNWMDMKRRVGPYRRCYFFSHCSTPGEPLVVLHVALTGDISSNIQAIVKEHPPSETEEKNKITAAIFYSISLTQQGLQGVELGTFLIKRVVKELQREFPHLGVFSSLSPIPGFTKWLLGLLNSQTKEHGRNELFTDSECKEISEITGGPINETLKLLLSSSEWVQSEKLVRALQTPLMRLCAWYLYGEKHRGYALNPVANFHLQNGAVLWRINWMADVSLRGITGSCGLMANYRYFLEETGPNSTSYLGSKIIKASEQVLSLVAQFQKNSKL
Put plainly: Inhibition of MBP fused human MCD.

Usually IC50 stands for the concentration that inhibits the measured activity by half. In turn, `O=C(NCC1CCCCC1)c1ccc(C(=O)C(F)(F)F)cc1` gave an IC50 of 2300 nM.
